Patent publication US9371387B2 (GACHON UNIVERSITY OF INDUSTRY-ACADEMIC COOPERATION …, priority 2011, dated 2016)

System: human macrophage cells
Test: AGE-albumin synthesis and release by macrophages under oxidative stress (ELISA)
Format: cell-based
Settings: FIG. 3
Description: For the in vitro study, immortal human macrophage cells were employed. The macrophages were grown in DMEM (Dulbecco's modified Eagle's medium, Gibco)-high glucose supplemented with 10% heat-inactivated FBS (fetal bovine serum, Gibco) and […] gentamicin (Sigma-Aldrich) at 37° C. in a 5% CO2 atmosphere.
After incubation at 4° C. for 12 hrs, the plates were washed three times with 1×PBS to remove the antibody which remained non-immobilized to the well, and then was filled with 5% BSA. […] After the plates were washed three time with 1×PBS to remove the antigens which remained unreacted, an anti-AGE antibody (Abcam) was applied at a concentration of 1 ug/ml to each well and incubated at room temperature for 2 hrs. The antibody remaining unreacted was washed off with 1×PBS. Each well was incubated with 1 ug/ml peroxidase-conjugated secondary antibody (Vector laboratory) at room temperature for 2 hrs and washed with 1×PBS to remove the secondary antibodies which remained unreacted. Color was developed with TMB (3,3′,5,5′-tetramethylbenzidine) at room temperature for 20 min. When the TMP buffer turned dark blue, the color development was stopped with 2NH2SO4. Absorbance at 450 nm was read on an ELISA reader (VERSA Max, Molecular Devices) (FIG. 1).

Structure (SMILES) | expression level of AGE-albumin (macrophages, addition of antioxidant, irrespective of hypoxia (H2O2)) | amount of AGE-albumin (macrophages exposed to hydrogen peroxide)
O=C1O[C@H]([C@@H](O)CO)C(O)=C1O [ascorbic acid] | drastically reduced | 
OO [hydrogen peroxide] |  | increased in a concentration-dependent manner
